Measurements as given in patent publication US9714225B2, “Processes for the preparation of lorcaserin” (CADILA HEALTHCARE LIMITED, priority 2013, dated 2017).
Where a name gives a salt, the structure may show the parent alone.

Key:
[1] = Stability of crystalline Form I of lorcaserin hydrochloride stored packed for at least 3 months; format: physicochemical; conditions: 25° C./60% RH and 40° C./75% RH
Protocol: The crystalline Form I of lorcaserin hydrochloride having less than 0.5% water as manufactured by the process of the present invention was subjected to stability for at least 3 months at 25° C./60% RH or at about 40° C./75% RH.
In a further aspect, the stable crystalline Form I of lorcaserin hydrochloride can be stored under nitrogen atmosphere and packed in a double polythene bag which is either heat sealed or twisted and tied with a thread (primary packing). The primary packing containing the crystalline Form I of lorcaserin hydrochloride can be kept inside a black color polyethylene bag containing a desiccant (molecular sieves) which is either heat sealed or twisted and tied, and the above double polyethylene bags may further be placed inside a triple laminated bag, optionally containing a desiccant which is either heat sealed or twisted and tied. Finally, the triple laminated bag can be kept inside a closed high density polyethylene (HDPE) container and stored in a controlled environment chamber at 25° C. and/or 40° C.

[2] = cited from earlier work
[3] = 2 Months, LDPE bag closed with a heat seal (Table 1)
[4] = 2 Months, LDPE bag closed with a twist and tie (Table 2)
[5] = 3 Months, LDPE bag closed with a heat seal (Table 1)
[6] = 3 Months, LDPE bag closed with a twist and tie (Table 2)

In the case of C[C@H]1CNCCc2ccc(Cl)cc21.Cl [(R)-8-chloro-1-methyl-2,3,4,5-tetrahydro-1H-3-benzazepine hydrochloride], the “Water (%)” value ([1]; 1 Month, LDPE bag closed with a heat seal (Table 1), specification Less than 0.5% w/w) is reported as 0.31%, the “X-Ray Diffraction” value ([1]; 1 Month, LDPE bag closed with a heat seal (Table 1), specification: should confirm the Form-I) is reported as “Form I” and the “Water (%)” value ([1]; 1 Month, LDPE bag closed with a twist and tie (Table 2), specification Less than 0.5% w/w) is reported as 0.31%. For the same molecule, the “X-Ray Diffraction” value ([1]; 1 Month, LDPE bag closed with a twist and tie (Table 2), specification: should confirm the Form-I) was “Form I”, the Description ([1]; 1 Month, LDPE bag purged with nitrogen closed with a heat seal (Table 1), specification White to off-white) was “off-” and the Description ([1]; 1 Month, LDPE bag purged with nitrogen closed with a twist and tie (Table 2), specification White to off-white) was “off-”. For the same molecule, the Description [1, 3] was “off-”, the “Water (%)” value [1, 3] was 0.35% and the “X-Ray Diffraction” value [1, 3] was “Form I”. The Description [1, 4] was “off-”, the “Water (%)” value [1, 4] was 0.35% and the “X-Ray Diffraction” value [1, 4] was “Form I”. For the same molecule, the Description [1, 5] was “off-white”, the “Water (%)” value [1, 5] was 0.35% and the “X-Ray Diffraction” value [1, 5] was “Form I”. For the same molecule, the Description [1, 6] was “off-white”, the “Water (%)” value [1, 6] was 0.35% and the “X-Ray Diffraction” value [1, 6] was “Form I”. For the same molecule, the “moisture adsorbed (calculated)” value ([2]; DVS, between about 40 and about 80% RH) was “about 3.8%”, the “relative humidity (RH) above which moisture is readily adsorbed” value ([2]; DVS) was 40-60% and the “crystalline form by XRPD after the DVS cycle” value [2] was “conversion to the hemihydrate (Form III)”.
In the case of C[C@H]1CNCCc2ccc(Cl)cc21 [Form III, (R)-8-chloro-1-methyl-2,3,4,5-tetrahydro-1H-3-benzazepine hydrochloride hemihydrate], the water adsorbed ([2]; DVS, at 90% RH) is listed as “less than 0.5%” and the “crystalline form by XRPD after the DVS cycle” value [2] is listed as “no change in crystalline form”.
